Reference: patent US9062030B2, “Pyrazole azetidine derivatives as sphingosine 1-phosphate (S1P) receptor modulators” (Allergan, Inc., priority 2013, dated 2015)

Molecular target: T1, human S1P1 receptor (Homo sapiens, UniProt P21453)
T1 construct: expressed in transfected cells; membranes used
Assay: GTP γ35S binding assay for S1P1 activity
Assay type: biochemical
Details: membranes of cells stably expressing the S1P1 receptor, agonist activity potency
Description: Compounds were synthesized and tested for S1P1 activity using the GTP γ^35S binding assay. These compounds may be assessed for their ability to activate or block activation of the human S1P1 receptor in cells stably expressing the S1P1 receptor.
GTP γ^35S binding was measured in the medium containing (mM) HEPES 25, pH 7.4, MgCl2 10, NaCl 100, dithiothreitol 0.5, digitonin 0.003%, 0.2 nM GTP γ^35S, and 5 μg membrane protein in a volume of 150 μl. Test compounds were included in the concentration range from 0.08 to 5,000 nM unless indicated otherwise. Membranes were incubated with 100 μM 5′-adenylylimidodiphosphate for 30 min, and subsequently with 10 μM GDP for 10 min on ice. Drug solutions and membrane were mixed, and then reactions were initiated by adding GTP γ^35S and continued for 30 min at 25° C. Reaction mixtures were filtered over Whatman GF/B filters under vacuum, and washed three times with 3 mL of ice-cold buffer (HEPES 25, pH 7.4, MgCl2 10 and NaCl 100). Filters were dried and mixed with scintillant, and counted for ^35S activity using a β-counter. Agonist-induced GTP γ^35S binding was obtained by subtracting that in the absence of agonist. Binding data were analyzed using a non-linear regression method. In case of antagonist assay, the reaction mixture contained 10 nM S1P in the presence of test antagonist at concentrations ranging from 0.08 to 5000 nM.

T1 sequence (P21453 whole entry): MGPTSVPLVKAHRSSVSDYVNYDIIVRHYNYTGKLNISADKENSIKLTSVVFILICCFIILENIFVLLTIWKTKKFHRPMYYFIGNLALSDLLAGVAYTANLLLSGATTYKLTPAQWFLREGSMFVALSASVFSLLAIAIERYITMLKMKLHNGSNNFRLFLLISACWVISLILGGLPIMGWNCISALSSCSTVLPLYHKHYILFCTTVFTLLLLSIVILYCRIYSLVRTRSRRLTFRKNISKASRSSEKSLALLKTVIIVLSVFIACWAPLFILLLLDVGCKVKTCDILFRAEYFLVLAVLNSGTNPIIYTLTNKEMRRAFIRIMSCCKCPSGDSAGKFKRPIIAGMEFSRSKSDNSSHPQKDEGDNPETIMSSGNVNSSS

For Cc1nn(C(=O)CCc2ccc(CN3CC(C(=O)O)C3)cc2)c2c1C1C(C2)C1(C)C (stereo not shown) [Compound 1, 1-{4-[3-oxo-3-(3,4,4-trimethyl-3b,4,4a,5-tetrahydro-1H-cyclopropa [3,4]cyclopenta[1,2-c]pyrazol-1-yl)propyl]benzyl}azetidine-3-carboxylic acid], the EC50 was 450 nM.
